Test results as given in patent US9339486B2, “Heterocyclic modulators of cannabinoid receptors” (THE CLEVELAND CLINIC FOUNDATION, priority 2008, dated 2016).

Tests used:
rCB2 receptors = rCB2 receptors (Rattus norvegicus (Rat), UniProt Q9QZN9); experiment: cAMP activation assay rCB2; type: cell-based
Method: The compound of Example 3 was tested for agonist activity at the rat CB1 (rCB1) and rCB2 receptors, at eight concentrations, in duplicate: 10, 3, 1, 0.3, 0.1, 0.03, 0.01 and 0.001 μM. Recombinant cells grown to mid-log phase in culture media without antibiotics were detached with PBS containing 5 mM EDTA, centrifuged and resuspended in assay buffer at a concentration of 16.6×10^5 cells/ml. The test was performed in 96 well plates. For testing, 12 μl of cells ([…]) were mixed with 12 μl of agonist at increasing concentrations. […] The plates were then incubated for 30 min at room temperature. After addition of the lysis buffer, cAMP concentrations were estimated, according to the manufacturer specification, with the HTRF kit from Cis-Bio International (Catalogue number 62AM2PEB).

[1] = system: paclitaxel-induced neuropathy; experiment: Prevention of neuropathy induced by paclitaxel; type: in vivo, rat; details: paclitaxel model
Method: A mixture of saline and CREMOPHOR® ELP 10% was used as vehicle for paclitaxel. It was injected at a concentration of 1.0 mg/kg intraperitoneally to the chemotherapy-treated group of rats on 4 consecutive days for a final cumulative dose of 4 mg/kg to 18 rats.
Paw withdrawal thresholds were determined daily in both hind paws of each animal using calibrated von Frey monofilaments according to an up-down procedure. A series of von Frey filaments with exponentially incremental degrees of stiffness (0.4, 0.7, 1.2, 2.0, 3.6, 5.5, 8.5, and 15.1 g) was used to measure the 50% threshold for both hindpaw withdrawal in awake, unrestrained rats. Chaplan, S. R., Quantitative assessment of tactile allodynia in the rat paw, Journal of Neuroscience Methods, 1994, 53:55-63. Brisk paw withdrawal from the pressure of a filament gently bent against the plantar surface of the paw was defined as a positive response, and absence of withdrawal within 6 sec was considered a negative response. The series of filaments touched the hindpaw in sequential ascending or descending order of stiffness until the threshold of response was crossed (allowing about 10 sec between each increment). Each time the threshold was crossed, the direction of stimulus presentation was reversed and the procedure resumed. Four responses were collected after the first threshold detection, and the 50% withdrawal thresholds was interpolated. In cases in which the response thresholds fall outside the range of detection, 15.1 and 0.25 g were assigned for continuous negative or positive responses, respectively, to the limits of stimulation. FIG. 17 and FIG. 18 show results from these experiments and that peripheral neuropathy started to develop within a few days. FIG. 18 reflects that a plateau was reached by the 10th day.
Group 1 of rats received paclitaxel for four days, as described immediately above in subpart (A) titled “Paclitaxel-induced Neuropathy.” In group 2, a dose of 15 mg/kg of the compound of Example 3, injected intraperitoneally was administered 30 minutes prior to the administration of paclitaxel. In group 3, vehicle of the compound of Example 3 was administered 30 min prior to the administration of paclitaxel. Paw withdrawal thresholds were determined daily in both hind paws of each animal using calibrated von Frey monofilaments according to an up-down procedure as described immediately above in subpart (A) titled “Paclitaxel-induced Neuropathy.” The results are shown in FIG. 17.
FIGS. 19A and 19B show results from an experiment in which three groups of rats were administered 0.25 mL of the compound of Example 3 or the vehicle, a mixture of NMP, propylene glycol, chromophore ELP (25%, 25%, 10%) in sterile water 30 min prior to the administration of paclitaxel. Two of the three experimental groups continued to receive either the vehicle or the compound of Example 3 daily for 11 more days.

naïve rats = experiment: Open field chamber testing; type: in vivo, rat; details: i.p.: Example 3 15 mg/kg, WIN 55,212-2 7 mg/kg, haloperidol 1 mg/kg
Method: The automated open-field chamber (Med Associates ENV-515 Test Environment, St. Albans, Vt.) 43.2×43.2×30.5 cm (L×W×H) equipped with three pairs of 16 infrared arrays that continually monitored the animal's movement was used to determine potential CNS effects of the compound of Example 3, WIN55212-2, and haloperidol in naïve rats. Rats were individually tested 15 min after i.p. drug administration. The infrared beams were set 2.5 cm apart horizontally and at a height of 3 cm above the floor, with the rearing array set at 12 cm from the floor. The area in the box was divided into 4 equal quadrants (zones), with data collected within each quadrant and across quadrants (zone entries). An ambulatory movement was defined as a motion of at least 5 cm and was coded by quadrant. Vertical movements were counted when the rat moved vertically a minimum of 12 cm from the floor. Zone entries were defined as an entry into a zone (from another zone). Entry into a zone was counted when the rat was far enough into the zone to break 2 sets of photoelectric beams for the new zone beams during an ambulatory movement.

## CCCCCCC(C)(C)c1ccc([C@@H]2C[C@H](O)CC[C@H]2CCCO)c(O)c1 [CP55,940, reference compound]
rCB2 receptors
  EC50: 1.13 ± 0.13 nM

## COc1ccc2[nH]cc(CCNC(C)=O)c2c1 [Melatonin, reference compound]
[1]
  protection against neuropathy: did not provide any protection

## Cc1c(C(=O)c2cccc3ccccc23)c2cccc3c2n1[C@H](CN1CCOCC1)CO3 [WIN 55,212-2, reference compound]
naïve rats
  exploratory behavior in the open field (distance traveled, ambulatory time, rearing, zone entries): decreased exploratory behavior
